Source: ChEMBL document CHEMBL5038618, “Discovery of PT-65 as a highly potent and selective Proteolysis-targeting chimera degrader of GSK3 for treating Alzheimer's disease” (Eur J Med Chem, 2021)
Activity calls are given as the source filed them. The calls are words filed in the database; no cut-off is given here.

Assays:
[1] = test system: SH-SY5Y; assay: Cytotoxicity against human SH-SY5Y cells assessed as increase in cell viability at 62.5 to 250 nM pretreated for 2 hrs followed by Abeta42 addition and measured after 72 hrs by CCK8 assay; type: functional, cell-based; details: dose 62.5-250 nM, time 74.0 hrs
[2] = test system: SH-SY5Y; assay: Induction of apoptosis in human SH-SY5Y cells assessed as live cells at 125 nM preincubated for 2 hrs followed by coincubation with Abeta42 and measured after 72 hrs by Annexin V-FITC/propidium iodide staining based flow cytometry (Rvb=94.8%); type: functional; details: time 74 hrs
[3] = test system: Rattus norvegicus; assay: Antialzheimer activity against okadaic acid induced Sprague-Dawley rat assessed as reduction in escape latency time to hidden platform at 200 to 600 uM, iv measured upto 5 days by Morris water maze test; type: functional, organism-based; details: dose 200-600 µM, time day <=5
[4] = biological target: T1, Glycogen synthase kinase-3 beta (Homo sapiens, UniProt P49841); details: dose microM <=0.00975
Target sequence in this assay (P49841 whole entry, looked up): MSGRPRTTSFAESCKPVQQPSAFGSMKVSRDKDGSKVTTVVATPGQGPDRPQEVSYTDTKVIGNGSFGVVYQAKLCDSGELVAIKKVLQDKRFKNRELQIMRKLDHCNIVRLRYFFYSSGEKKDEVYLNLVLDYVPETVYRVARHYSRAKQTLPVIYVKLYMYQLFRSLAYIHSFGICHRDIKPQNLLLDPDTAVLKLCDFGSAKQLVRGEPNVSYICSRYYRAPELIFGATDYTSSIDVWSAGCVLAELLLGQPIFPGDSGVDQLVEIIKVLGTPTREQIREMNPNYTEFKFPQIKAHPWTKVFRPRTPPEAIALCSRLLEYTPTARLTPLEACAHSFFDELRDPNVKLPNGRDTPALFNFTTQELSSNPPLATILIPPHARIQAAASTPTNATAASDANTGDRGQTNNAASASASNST
Description: Binding affinity to recombinant GSK3beta (unknown origin) assessed as association rate constant upto 0.00975 uM by SPR analysis

[5] = biological target: T2, Protein cereblon/Glycogen synthase kinase-3 beta (Homo sapiens, UniProt P49841+Q96SW2); assay: Protac activity at CRBN/GSK3beta in human SH-SY5Y cells assessed as induction of GSK3beta degradation measured after 24 hrs; type: cell-based
Target sequence in this assay (P49841 whole entry): as the sequence (P49841 whole entry, looked up) above
Target sequence in this assay (Q96SW2 whole entry): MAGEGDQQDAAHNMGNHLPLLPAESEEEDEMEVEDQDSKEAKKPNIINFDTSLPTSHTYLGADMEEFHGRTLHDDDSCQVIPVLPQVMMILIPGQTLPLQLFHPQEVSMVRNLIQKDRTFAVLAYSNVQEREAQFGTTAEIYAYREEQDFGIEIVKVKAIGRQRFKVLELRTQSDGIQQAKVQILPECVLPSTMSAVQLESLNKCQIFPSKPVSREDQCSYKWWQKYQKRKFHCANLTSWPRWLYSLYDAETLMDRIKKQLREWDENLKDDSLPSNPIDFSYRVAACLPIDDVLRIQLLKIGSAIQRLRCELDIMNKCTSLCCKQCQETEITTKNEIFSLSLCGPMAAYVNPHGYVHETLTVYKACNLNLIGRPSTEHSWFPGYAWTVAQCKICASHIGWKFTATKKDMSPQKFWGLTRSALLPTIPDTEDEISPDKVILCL

[6] = test system: SH-SY5Y; assay: Cytotoxicity against human SH-SY5Y cells assessed as cell viability upto 100 uM measured after 72 hrs by CCK8 assay; type: functional, cell-based; details: dose microM <=100, time 72.0 hrs
[7] = test system: Rattus norvegicus; assay: Antialzheimer activity against hippocampal tissue of okadaic acid induced Sprague-Dawley rat assessed as reduction on GSK3beta protein level at 200 to 600 uM, iv by immunohistochemical staining based analysis; type: functional, organism-based; details: Hippocampus, dose 200-600 µM
[8] = test system: SH-SY5Y; assay: Induction of apoptosis in human SH-SY5Y cells assessed as live cells at 250 nM preincubated for 2 hrs followed by coincubation with Abeta42 and measured after 72 hrs by Annexin V-FITC/propidium iodide staining based flow cytometry (Rvb=94.8%); type: functional; details: time 74 hrs
[9] = test system: SH-SY5Y; assay: Induction of apoptosis in human SH-SY5Y cells assessed as necrotic cells at 62.5 nM preincubated for 2 hrs followed by coincubation with Abeta42 and measured after 72 hrs by Annexin V-FITC/propidium iodide staining based flow cytometry (Rvb=0.7%); type: functional; details: time 74 hrs
[10] = biological target: Protein cereblon/Glycogen synthase kinase-3 alpha (Homo sapiens, UniProt P49840+Q96SW2); assay: Protac activity at CRBN/GSK3alpha in human SH-SY5Y cells assessed as induction of GSK3alpha degradation at 0.1 uM measured after 24 hrs; type: cell-based
[11] = biological target: T2, Protein cereblon/Glycogen synthase kinase-3 beta; assay: Protac activity at CRBN/GSK3beta in human SH-SY5Y cells assessed as GSK3beta degradation at 1 uM pretreated with pomalidomide for 2 hrs followed by compound addition and measured after 24 hrs; type: cell-based
Target sequence in this assay (P49841 whole entry, looked up): as the sequence (P49841 whole entry, looked up) above
Target sequence in this assay (Q96SW2 whole entry, looked up): as the sequence (Q96SW2 whole entry) above

[12] = test system: SH-SY5Y; assay: Downregulation of GSK3alpha expression in human SH-SY5Y cells at 62.5 to 500 nM pretreated for 2 hrs followed by Abeta42 coincubation for 72 hrs by Westernblot analysis; type: functional, cell-based; details: dose 62.5-500 nM, time 74.0 hrs
[13] = test system: Rattus norvegicus; assay: Antialzheimer activity against hippocampal tissue of okadaic acid induced Sprague-Dawley rat assessed as reduction on GSK3alpha protein level at 200 to 600 uM, iv by immunohistochemical staining based analysis; type: functional, organism-based; details: Hippocampus, dose 200-600 µM
[14] = test system: SH-SY5Y; assay: Induction of apoptosis in human SH-SY5Y cells assessed as necrotic cells at 125 nM preincubated for 2 hrs followed by coincubation with Abeta42 and measured after 72 hrs by Annexin V-FITC/propidium iodide staining based flow cytometry (Rvb=0.7%); type: functional; details: time 74 hrs
[15] = biological target: T2, Protein cereblon/Glycogen synthase kinase-3 beta; assay: Protac activity at CRBN/GSK3beta in human SH-SY5Y cells assessed as GSK3beta degradation at 1 uM pretreated with MG-132 for 2 hrs followed by compound addition and measured after 24 hrs; type: cell-based
Target sequence in this assay (P49841 whole entry, looked up): as the sequence (P49841 whole entry, looked up) above
Target sequence in this assay (Q96SW2 whole entry, looked up): as the sequence (Q96SW2 whole entry) above

[16] = test system: SH-SY5Y; assay: Induction of apoptosis in human SH--SY5Y cells assessed as late apoptotic cells at 250 nM preincubated for 2 hrs followed by coincubation with Abeta42 and measured after 72 hrs by Annexin V-FITC/propidium iodide staining based flow cytometry (Rvb=3.5%); type: functional; details: time 74 hrs
[17] = test system: SH-SY5Y; assay: Induction of GSK3beta degradation in human SH-SY5Y cells assessed as maximum degradation at 1 uM measured after 9 hrs by western blot assay; type: cell-based
[18] = test system: SH-SY5Y; assay: Induction of apoptosis in human SH-SY5Y cells assessed as late apoptotic cells at 125 nM preincubated for 2 hrs followed by coincubation with Abeta42 and measured after 72 hrs by Annexin V-FITC/propidium iodide staining based flow cytometry (Rvb=3.5%); type: functional; details: time 74 hrs
[19] = biological target: T1, Glycogen synthase kinase-3 beta; assay: Binding affinity to recombinant GSK3beta (unknown origin) assessed as dissociation […] constant upto 0.00975 uM by SPR analysis
Target sequence in this assay (P49841 whole entry): as the sequence (P49841 whole entry, looked up) above

[20] = test system: SH-SY5Y; assay: Effect on tau protein expression in human SH-SY5Y cells assessed as reduction on phosphorylated tau Ser404 residue level at 62.5 to 500 nM pretreated for 2 hrs followed by Abeta42 coincubation for 72 hrs by Westernblot analysis; type: functional, cell-based; details: dose 62.5-500 nM, time 74.0 hrs
[21] = test system: SH-SY5Y; assay: Induction of apoptosis in human SH-SY5Y cells assessed as live cells at 62.5 nM preincubated for 2 hrs followed by coincubation with Abeta42 and measured after 72 hrs by Annexin V-FITC/propidium iodide staining based flow cytometry (Rvb=94.8%); type: functional; details: time 74 hrs
[22] = biological target: hERG (KCNH2) (Homo sapiens, UniProt Q12809); assay: Inhibition of hERG expressed in CHO cells at 40 uM by whole cell patch clamp assay; type: cell-based; details: CHO cells that express hERG
[23] = test system: Rattus norvegicus; assay: Improvement in learning and spatial memory in okadaic acid induced Sprague-Dawley rat assessed as increase in time spent in target quadrant at 200 to 600 uM, iv measured after 6 days by Morris water maze test; type: functional, organism-based; details: dose 200-600 µM, time 6.0 day
[24] = test system: SH-SY5Y; assay: Induction of GSK3beta degradation in human SH-SY5Y cells assessed as recovery of GSK3beta protein pretreated for 12 hrs followed by compound washout and measured upto 36 hrs by western blot assay; type: cell-based; details: time 48.0 hrs
[25] = biological target: Glycogen synthase kinase-3 alpha (Homo sapiens) (UniProt P49840); assay: Induction of GSK3alpha degradation in human SH-SY5Y cells assessed as recovery of GSK3alpha protein pretreated for 12 hrs followed by compound washout and measured upto 36 hrs by western blot assay; type: cell-based; details: time 48.0 hrs
[26] = test system: SH-SY5Y; assay: Induction of apoptosis in human SH-SY5Y cells assessed as early apoptotic cells at 125 nM preincubated for 2 hrs followed by coincubation with Abeta42 and measured after 72 hrs by Annexin V-FITC/propidium iodide staining based flow cytometry (Rvb=1%); type: functional; details: time 74 hrs
[27] = Downregulation of GSK3alpha expression in human SH-SY5Y cells accessed as fold change in GSK3alpha expression at 1 uM measured after 4 hrs by proteomic analysis; type: functional
[28] = test system: Rattus norvegicus; assay: Antialzheimer activity against hippocampal tissue of okadaic acid induced Sprague-Dawley rat assessed as reduction on GSK3beta protein level at 200 to 600 uM, iv by western blot assay; type: functional, organism-based; details: Hippocampus, dose 200-600 µM
[29] = test system: SH-SY5Y; assay: Induction of apoptosis in human SH-SY5Y cells assessed as early apoptotic cells at 62.5 nM preincubated for 2 hrs followed by coincubation with Abeta42 and measured after 72 hrs by Annexin V-FITC/propidium iodide staining based flow cytometry (Rvb=1%); type: functional; details: time 74 hrs
[30] = Downregulation of GSK3beta expression in human SH-SY5Y cells accessed as fold change in GSK3beta expression at 1 uM measured after 4 hrs by proteomic analysis; type: functional

Sequence of hERG (KCNH2) (Q12809 whole entry): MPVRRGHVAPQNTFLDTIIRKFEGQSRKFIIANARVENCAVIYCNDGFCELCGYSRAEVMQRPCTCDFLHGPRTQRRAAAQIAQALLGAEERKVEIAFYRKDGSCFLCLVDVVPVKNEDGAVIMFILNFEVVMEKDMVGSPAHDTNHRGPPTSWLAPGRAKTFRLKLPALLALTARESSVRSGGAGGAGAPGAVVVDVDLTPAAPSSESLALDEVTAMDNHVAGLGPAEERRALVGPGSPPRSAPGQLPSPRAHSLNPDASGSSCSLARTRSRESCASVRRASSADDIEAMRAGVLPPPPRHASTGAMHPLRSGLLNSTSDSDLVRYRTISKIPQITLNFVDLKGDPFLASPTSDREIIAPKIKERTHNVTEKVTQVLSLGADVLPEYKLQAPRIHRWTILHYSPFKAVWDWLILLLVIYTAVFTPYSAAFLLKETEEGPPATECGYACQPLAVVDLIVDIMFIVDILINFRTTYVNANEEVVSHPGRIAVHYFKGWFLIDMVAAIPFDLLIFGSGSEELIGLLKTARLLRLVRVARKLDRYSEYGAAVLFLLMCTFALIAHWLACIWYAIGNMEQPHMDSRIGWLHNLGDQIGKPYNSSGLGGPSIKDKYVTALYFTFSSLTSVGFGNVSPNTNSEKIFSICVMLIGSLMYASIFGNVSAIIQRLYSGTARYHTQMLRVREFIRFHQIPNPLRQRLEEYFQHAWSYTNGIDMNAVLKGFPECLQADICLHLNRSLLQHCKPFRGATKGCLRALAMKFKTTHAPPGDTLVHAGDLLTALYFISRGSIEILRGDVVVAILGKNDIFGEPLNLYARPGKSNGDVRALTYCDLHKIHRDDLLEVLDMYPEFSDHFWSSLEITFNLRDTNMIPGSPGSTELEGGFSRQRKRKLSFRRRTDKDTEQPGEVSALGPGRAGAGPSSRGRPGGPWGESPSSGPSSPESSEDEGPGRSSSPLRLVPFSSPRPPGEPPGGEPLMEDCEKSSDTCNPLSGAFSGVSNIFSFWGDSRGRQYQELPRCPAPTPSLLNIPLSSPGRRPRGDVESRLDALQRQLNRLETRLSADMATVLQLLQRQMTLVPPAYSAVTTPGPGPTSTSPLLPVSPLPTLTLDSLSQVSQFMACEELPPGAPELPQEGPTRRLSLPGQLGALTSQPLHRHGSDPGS
Sequence of Protein cereblon/Glycogen synthase kinase-3 alpha (P49840 2-483 limits assumed): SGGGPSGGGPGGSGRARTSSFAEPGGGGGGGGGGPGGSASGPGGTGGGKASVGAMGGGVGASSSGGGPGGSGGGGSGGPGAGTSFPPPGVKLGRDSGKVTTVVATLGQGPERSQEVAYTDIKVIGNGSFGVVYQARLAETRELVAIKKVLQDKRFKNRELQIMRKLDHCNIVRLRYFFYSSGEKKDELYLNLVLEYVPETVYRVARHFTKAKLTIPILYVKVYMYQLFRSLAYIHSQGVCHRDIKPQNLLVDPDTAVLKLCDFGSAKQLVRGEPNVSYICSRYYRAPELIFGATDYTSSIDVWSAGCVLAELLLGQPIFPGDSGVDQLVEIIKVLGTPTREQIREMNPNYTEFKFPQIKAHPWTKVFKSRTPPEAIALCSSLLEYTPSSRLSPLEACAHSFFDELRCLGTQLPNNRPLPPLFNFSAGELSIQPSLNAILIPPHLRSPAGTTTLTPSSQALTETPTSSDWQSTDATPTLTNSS
Sequence of Protein cereblon/Glycogen synthase kinase-3 alpha (Q96SW2 whole entry partner): as the sequence (Q96SW2 whole entry) above
Sequence of Glycogen synthase kinase-3 alpha (Homo sapiens) (P49840 2-483 limits assumed): as the sequence (P49840 2-483 limits assumed) above

In the case of Nc1ncc(-c2ccc(S(=O)(=O)N3CCN(CCCCc4cn(CCOCCOCCOCCOCCOCCNc5cccc6c5C(=O)N(C5CCC(=O)NC5=O)C6=O)nn4)CC3)cc2)nc1C(=O)Nc1cccnc1 (stereo not given), the Activity [1] is reported as “inactive”, the Activity [2] is reported as 83% and the Activity [3] is reported as “inactive”. The Ka [4] was 2.04 10^6/Ms, the DC50 [5] was 0.0342 µM and the Activity [6] was “inactive”. For the same molecule, the Activity [7] was “Active”, the Activity [8] was 89.5% and the Activity [9] was 6.7%. The Activity [10] was 74.4%, the Activity [11] was “inactive” and the Activity [12] was “Dose-Dependent Effect”. For the same molecule, the Activity [13] was “Active”, the Activity [14] was 3.3% and the Activity [15] was “inactive”. For the same molecule, the Activity [16] was 6.5%, the Activity [17] was “Active” and the Activity [18] was 12.5%. For the same molecule, the Kd [19] was 0.0253 s⁻¹, the Activity [20] was “Dose-Dependent Effect” and the Activity [21] was 79%. For the same molecule, the inhibition at 40 µM [22] was 15.4%, the Activity [23] was “Active” and the Activity [24] was “Active”. For the same molecule, the Activity [25] was “Active”, the Activity [26] was 1.2% and the “fold change (FC)” value [27] was 0.35. The Activity [28] was “Active”, the Activity [29] was 1% and the “fold change (FC)” value [30] was 0.33.
